melting point	SMILES
227 °C	Clc1ccc(C=CC(C=Cc2ccc(Cl)cc2)=NNC2=NCC(c3ccccc3)(c3ccccc3)N2)cc1
105 to 106 °C	COCC1CN(c2ccc(C3CCCCC3)c([N+](=O)[O-])c2)C(=O)O1 (racemic)
57 °C	CCCCCCCCCCCCCCCCCCNC(=O)OCCN1CCCC1
138 to 139 °C	OCc1ccc2c(Cl)ccnc2c1
258 to 260 °C	N#Cc1ncn2c(-c3cccnc3)ccnc12
134 °C	COc1ccc2cc(S(=O)(=O)Cl)cc(OC)c2c1
165 to 167 °C	COc1cc(C(=O)C(=O)O)cc([N+](=O)[O-])c1O
170 to 172 °C	CC(C)c1cc(C(=O)NCc2ccccc2)c(N)s1
139 to 142 °C	COc1cc(OC)nc(OC2C(=O)OCC2(C)C)n1 (stereo unspecified)
115 to 117 °C	CC(=NOC(=O)Nc1ccccc1)C(C)N(C(=O)CCl)c1c(C)cccc1C (stereo unspecified)
37 to 39 °C	COC(=O)c1sc(C)c(C)c1OC
48 °C	COC(C)(OC)C(=O)CCCCCCOc1ccc(-c2ccccc2)cc1
170 to 172 °C	N#Cc1cc(C(=O)O)cnc1Br
299 °C	Cc1ccc(-n2nc3c4cc(Cc5ccccc5)ccc4[nH]c(=O)n3c2=O)cc1
> 280 °C	Oc1ccc(-c2nnnc(-c3cccc4ccccc34)c2-c2ccc(O)cc2O)c(O)c1
135 °C	CC(C)C(N)CN1CCC(Nc2nc3ccccc3n2Cc2ccc3ccccc3n2)CC1 (stereo unspecified)
192 to 195 °C	Cc1ccccc1-c1noc2c3c(c(Cl)cc12)OC(C(=O)O)C3 (stereo unspecified)
136 to 138 °C	COc1cc2c(cc1O)C1Cc3c(Cl)cc(OC)c(O)c3CN1CC2 (stereo unspecified)
194 to 198 °C	Cc1cc(C)c(S(=O)(=O)OS(=O)(=O)c2c(C)cc(C)cc2C)c(C)c1
185 to 188 °C	C=COc1ccccc1S(=O)(=O)NC(=O)c1ccc(Cc2cn(C)c3ccc(NC(=O)OC4CCCC4)cc23)c(OC)c1
189 to 193 °C	COc1ccc(N2Cc3cnc(Nc4ccccc4)nc3N(C[C@@H](C)O)C2=O)cc1
145 to 147 °C	CC(C)(C)C(O)C(Oc1ccc(Cl)cc1)n1ccnc1 (stereo unspecified)
73 to 75 °C	CCCc1ccccc1OCCCCCOc1ccc2c(=O)cc(C(=O)OCC)oc2c1CCC
155 to 157 °C	CCOC(=O)C1=C(CSC(C)=O)NC(C)=C(C#N)C1c1cccc([N+](=O)[O-])c1 (stereo unspecified)
168 to 172 °C	CC12CC(=O)C3C(CCC4CC(=O)CCC43C)C1CCC2C(=O)CCl (stereo unspecified)

melting point	SMILES
179 to 182 °C	Cc1nc2ccccc2n(-c2ccc(CC(=O)O)cc2)c1=O
74 to 76 °C	C(=CCON(c1ccccc1)c1ccccc1)CON(c1ccccc1)c1ccccc1
141 to 142 °C	Cn1c(C(F)(F)F)cc(=O)n(-c2cc(OCSc3ccc(Cl)cc3)c(Cl)cc2F)c1=O
60 °C	CCOC(=O)C(=O)CC(=O)N1CCOCC1
50 to 52 °C	CCCCCCCCCCCCCCCC(CC)OCC(=O)c1ccccc1 (stereo unspecified)
310 to 312 °C	COc1cc(-c2ccc(O)c(C34CC5CC(CC(C5)C3)C4)c2)cc(C=C2SC(N3CCOCC3)=NC2=O)c1O
90 °C	CN1CCC(c2c[nH]c3ccc(C(=O)c4ccccn4)cc23)CC1
159 to 160 °C	Oc1ccc2c(c1)OCC(N1CCC(O)(c3ccc(F)cc3)CC1)C2O (stereo unspecified)
182 to 183 °C	CN(C)CC1CN(c2c(F)cc3c(=O)c(C(=O)O)cn(C4CC4)c3c2F)CCO1 (stereo unspecified)
77 to 80 °C	CC1(C)CC(SCc2c(F)cccc2F)=NO1
80 to 81 °C	CCCCc1c(F)c(F)c(NN)c(F)c1F
134 to 136 °C	COc1ccccc1N1CCN(CCNc2ccccc2C(N)=O)CC1
87 to 88 °C	Cc1c2c(c(C)c3c1NC(C)C3)OC(C)(C)C2 (stereo unspecified)
257 °C	c1ccc2c(Sc3c4ccccc4cc4ccccc34)c3ccccc3cc2c1
132 to 133 °C	CSc1ccc(C(C#N)=NO)cc1
276 to 277 °C	Cc1cccc(CNc2ncnc3nc[nH]c23)c1O
247 °C	Nc1ccc(NCCc2ccccc2)cc1
282 to 283 °C	COc1ccc(N=Nc2ccc(O)c(C(=O)Nc3ccc(OC)c(-c4nn(C(C)=O)c5cc(C)nn45)c3)c2)cc1
82 to 84 °C	COC(=O)C=CC=CCS(=O)c1ccccc1 (stereo unspecified)
225 °C	Cc1cc(COc2ccc(S(=O)(=O)NC[C@@H](C(=O)NO)N3CCNCC3)cc2)c2ccccc2n1
116 to 119 °C	CCOC(=O)N1C(NC(C)C)=NS(=O)(=O)c2c1sc(C)c2C#N
170 to 172 °C	O=C1CC(O)CN1S(=O)(=O)c1ccc(N2CCCCCC2)cc1 (stereo unspecified)
162 °C	O=C(C(Cl)=CO)c1ccc(Cl)cc1Cl
117 to 118 °C	O=[N+]([O-])C=C1NCCN1C/C=C\Cl
110 to 111 °C	FC(F)(F)c1snc(-c2c(Cl)cc(Cl)c3nc(C4CC4)oc23)c1Cl

melting point	SMILES
> 310 °C	Nc1ccc(Br)cc1CC1NC(=O)NC1=O (stereo unspecified)
160 to 162 °C	COC(=O)[C@H](CSSC[C@H](NC(=O)[C@@H]1CCC(=O)N1)C(=O)OC)NC(=O)[C@@H]1CCC(=O)N1
133 to 135 °C	C=Cc1cnc2c(NC(=O)c3c(Cl)cccc3Cl)cccc2c1CCO
74 to 76 °C	CCCCc1ccc(-c2ccccc2)c(C(=O)O)c1
80 to 80.5 °C	COc1ccc(C#N)c(C)n1
88 to 89 °C	CO/C=C(/C(=O)OC)n1cccc1
193 to 195 °C	CNc1nc(-c2cccc(NC(=O)c3cccc(OC)c3)c2)c2cc(OC)c(OC)cc2n1
177 to 179 °C	CC(C)(C)OC(=O)Nc1ccc(-c2ccc(F)cc2)cc1NC(=O)CC(=O)c1cccc(C#N)c1
142 to 143 °C	Cc1occc1C(=S)Nc1ccc(Cl)c(C=NN2CCOCC2)c1
105 to 106 °C	CCCOc1n[nH]c(=O)n1C1CC1
183 to 184 °C	CC(=O)Oc1ccc(-c2cnc[nH]c2=O)cc1OC(C)=O
162 to 165 °C	C[C@H](C(=O)O)n1ncn(-c2ccc(OCC(F)(F)C(F)F)cc2)c1=O
116 °C	Cc1cccc(SCC(=O)C23CC4CC(CC(C4)C2)C3)n1
285 to 286 °C	CC(C)(C)c1cc(Cl)n2ncnc2n1
352 to 355 °C	O=C(O)c1ccc2c(c1)S(=O)(=O)c1ccc(Cl)cc1C2=O
248 to 249 °C	Cc1nc2c(O)c(CCC(=O)c3ccc(F)cc3)c(C(=O)N(C)C)cc2n1C
226 to 228 °C	COc1ccc(-c2sc3c(c2CBr)c(=O)c(C(C)=O)cn3Cc2ccccc2F)cc1
93 °C	CCOC(=O)CSc1nc(C(C)(C)C)n[nH]1
166 °C	Cc1ccc(N)cc1Nc1ncc(-c2cccnc2)o1
112 to 113 °C	O=C(CC(C[N+](=O)[O-])c1ccccc1)c1ccc(O)cc1 (stereo unspecified)
159 to 160 °C	O=C(O)CCc1cnn(-c2ccccc2)c1-c1ccccc1
202 to 204 °C	O=C(c1ccc(-c2cnc3c(c2)N(Cc2cc(F)ccc2F)CCN3)cc1)N1CCC(N2CCCC2)CC1
194 °C	O=C(Nc1cc2nc(-c3ccc(C(=O)C4CCCCCC4)cc3)[nH]c2cn1)C1CCCCCC1
105 to 107 °C	CCc1cc(C)cc(C)c1NC(=S)NC(C)(C)CC
175 to 177 °C	CCCCN(Cc1ccc(-c2ccccc2-c2nnn[nH]2)cc1)c1nc(C)ccc1C(=O)O

melting point	SMILES
118 to 121 °C	Nc1ncc2c(n1)CCC(CNC(=O)[C@@H]1CCCN1C(=O)[C@@H](CC1CCCCC1)NS(=O)(=O)Cc1ccccc1)C2 (stereo partly specified)
240 to 242 °C	CC(C)(C)OC(=O)N1CCN(c2nc(N)c3nc(-c4ccccc4)c(N)nc3n2)CC1
131 °C	COC(=O)CCCCc1csc(N)n1
99 °C	CCCCSC(=O)NC(=O)C(c1ccccc1)c1ccccc1
84 to 86 °C	CN1C(=S)COC1=Nc1cccc(C(F)(F)F)c1
63 to 65 °C	CCCCCC(O)CCN1C(=O)NC(=O)C1CCCCCCC(=O)O (stereo unspecified)
189 °C	O=C(Nc1ccc(OC(F)(F)F)cc1)c1ccccc1NCc1ccc(=O)[nH]c1
114 to 115 °C	COC(=O)C1Oc2ccc(Cl)cc2C(c2ccccc2)(C(C)C)O1 (stereo unspecified)
97.7 °C	CC(=O)Oc1c(C(C)(C)C)cc2c(c1C(C)(C)C)CC(C)(C)O2
181 to 183 °C	c1ccc2c(c1)c1c(N3CCCC3)nc(N3CCCC3)nc1n2CCn1ccnc1
196 to 198 °C	COc1cc(OC)c(-c2cccs2)cc1/C=C/C(=O)c1ccccc1C(=O)O
233 °C	CC(=O)OC1C(COC(=O)c2ccccc2)OC(n2cc(Cl)c(N)nc2=O)C1F (stereo unspecified)
82 to 83 °C	C=C(Cc1ccccc1C)C(=O)O
118 to 121 °C	COc1cc2c(cc1Nc1ncc(Cl)c(Nc3c(OC)ccc4c3CN(S(C)(=O)=O)CC(=O)N4)n1)CCN(CC(=O)N(C)C)CC2
82 to 84 °C	CC(=O)C=Cc1ccc(Br)cc1
> 300 °C	Nc1nc(N)nc(N(c2ccc(OCOc3ccc(N(c4nc(N)nc(N)n4)c4nc(N)nc(N)n4)cc3)cc2)c2nc(N)nc(N)n2)n1
129 to 133 °C	CNC(=O)C(C)Oc1ccc(Oc2ccc(C(F)(F)F)cc2)cc1 (stereo unspecified)
66 to 69 °C	COC(=O)CCc1nc(C=O)ccc1OCCCC/C=C/c1ccc(OC)cc1
142 to 144 °C	CC(=O)CC[C@H](NC(=O)OCc1ccccc1)C(N)=O
196 to 197 °C	CCn1c(=O)ccc2cnc(Nc3ccc(OC)cc3)nc21
98 to 99 °C	CC(C)(C)OC(=O)[C@@H]1CCCN1CC(=O)[C@H](Cc1ccccc1)NC(=O)OCc1ccccc1
164 to 166 °C	O=C(NCC1CCN(C(c2ccccc2)c2ccccc2)CC1)c1cc(F)ccc1[N+](=O)[O-]
76 to 78 °C	COc1ccc(C2=NN(C3CCN(C(=O)NC(C)(C)C)CC3)C(=O)CC2)cc1OC

SMILES	melting point
O=C(O)C1CC2CC(CP(=O)(O)O)CCC2CN1 (stereo unspecified)	208 to 211 °C
CC(C)CCN1C(=O)C(NC(=O)n2ccnc2)C(=O)N(c2ccccc2)c2ccccc21 (stereo unspecified)	62 to 65 °C
O=C(OC1N=C(c2ccccc2)c2ccccc2NC1=O)c1cc2ccccc2[nH]1 (racemic)	271 to 273 °C
